# Test results reported in patent US20050227982A1, “Antileishmanial dinitroaniline sulfanomides with activity against parasite tubulin” (priority 2002, published 2005).
# Several values for one entry are separate records, joined by “and”; a condition that tells them apart may be missing. Equal values may be shown once. Read-outs that look alike come from different tables or passages of the source.
# Legend:
# [1] = system: L. donovani promastigotes; experiment: Growth inhibition of L. donovani promastigotes; format: cell-based, Leishmania donovani; conditions: for IC50: read-out: IC50 vs. L. donovani promastigotes
# [2] = system: L. donovani axenic amastigotes; experiment: Growth inhibition of L. donovani axenic amastigotes (three-day tetrazolium dye assay); format: cell-based, Leishmania donovani
# Method: (§1) 2000, 110, 223-236, incorporated herein by reference.^14
# (§2) Determination of the drug susceptibility of parasites and mammalian cells. The susceptibility of Leishmania donovani amastigote-like parasites (WHO designation: MHOM/SD/62/1S-CL2D) to growth inhibition by compounds of interest was measured in a three-day assay using the tetrazolium dye-based CellTiter reagent (Promega) (Werbovetz, K., Brendle, J., and Sackett, D. (1999) Mol. Biochem. Parasitol. 98, 53-65., and Havens, C., Bryant, N., Asher, L., Lamoreaux, L., Perfetto, S., Brendle, J., and Werbovetz, K. (2000) Mol. Biochem. Parasitol. 110, 223-236). The amastigote medium used in this assay is based on the medium mentioned by Joshi et al. (Joshi, M., Dwyer, D. M., and Nakhasi, H. L. (1993) Mol. Biochem. Parasitol. 58, 345-354). Prior to addition of fetal bovine serum to a final concentration of 20%, this amastigote medium contains 15 mM KCl, 115 mM KH2PO4, 10 mM K2HPO4, 0.5 mM MgSO4, 24 mM NaHCO3, a 1-concentration of RPMI-1640 vitamins and amino acids, 2.0 mM L-glutamine, 22 mM D-glucose, 100 units/mL penicillin, 100 ∝g/ml streptomycin, 0.1 mM adenosine, 1 ∝g/mL folate, and 25 mM MES (pH 5.5). Compounds were tested for their activity against bloodstream-form Trypanosoma brucei brucei (MITat 1.2, variant 221) axenically-cultured in HMI-9 medium , H., and Hirumi, K. (1989) J. Parasitol. 75, 985-989.) following the procedure of Ellis et al. (Ellis, J., Fish, W., Sileghem, M., and McOdimba, F. (1993) Vet. Parasitol. 50, 143-149.) with some modifications. Briefly, 100 μL of late log phase parasites were incubated in 96-well plates (Costar) at an initial concentration of 10^5 cells/ml with or without test compounds at 37° C. in a humidified 5% CO2 atmosphere for 72 hours. Twenty-five μL of a 5 mg/mL solution of MTT (prepared in phosphate buffered saline and filter sterilized) was then added to each well and plates were re-incubated at 37° C. as before for 2 h. One hundred ∝L of 20% SDS lysis buffer (prepared in 50% aqueous DMF) was added to each well and plates were incubated as before for an additional 3-4 h. Optical densities were then measured at 570 nm using SpectraMax Plus microplate reader. […] Assessment of the in vitro sensitivity of T. b. brucei Lab 110 EATRO and P. falciparum strains to compounds was performed by methods described in Donkor et al. (Donkor, I., Assefa, H., Rattendi, D., Lane, S., Vargas, M., Goldberg, B., and Bacchi, C. (2001) Eur. J. Med. Chem. 36, 531-538.) and Guan et al. (Guan, J., Kyle, D., Gerena, L., Zhang, Q., Milhous, W., and Lin, A. (2002) J. Med. Chem. 45, 2741-2748).
# leishmanial tubulin [3] = format: biochemical; conditions: mean ± SD of at least one duplicate measurement, SD of controls 27.6%
# Method: as §1
# Briefly, the tubulin assembly assays are performed as follows. […] The change in turbidity was measured at 351 nm using the SpectraMax Plus microplate reader immediately after GTP addition at 30° C. (for leishmanial tubulin) or 37° C. (for brain tubulin).
# [4] = system: Trypanosoma brucei brucei (MITat 1.2, variant 221); experiment: microbe, parasite or virus in culture; format: cell-based; conditions: read-out: IC50, T. b. brucei variant 221
# Method: as §2
# [5] = system: T. b. brucei Lab 110 EATRO; experiment: In vitro sensitivity of T. b. brucei Lab 110 EATRO (Coulter counter, two-day); format: cell-based, Trypanosoma brucei brucei; conditions: read-out: IC50, T. b. brucei Lab 110 EATRO
# Method: as §2
# P. falciparum D6 strain = experiment: In vitro sensitivity of P. falciparum D6 strain (tritiated hypoxanthine uptake); format: cell-based, Plasmodium falciparum
# Method: as §2
# P. falciparum W2 strain = experiment: microbe, parasite or virus in culture; format: cell-based, Plasmodium falciparum
# Method: as §2
# J774 murine macrophages = experiment: Toxicity to J774 macrophages (three-day CellTiter assay); format: cell-based
# Method: (§3) The toxicity of compounds to J774 murine macrophages and PC3 […] cells was measured in a three-day assay using the CellTiter reagent. […] Macrophages were allowed to adhere for 24 hours, then the medium was removed and replaced with serial dilutions of the test compounds in the DMEM medium mentioned above without phenol red. After 72 hr incubation with the test compounds at 37° C. in a humidified 5% CO2 incubator, cell viability was determined using the CellTiter reagent by adding 20 μL of assay solution to each well. After a 6-7 h incubation at 37° C. to allow for color development, the absorbance of each well at 490 nm was measured in a SpectraMax Pro microplate reader (Molecular Devices). The toxicity of compounds to PC3 cells was assessed in the same manner as for the macrophages, except that the medium used was RPMI 1640 supplemented with 10% heat inactivated fetal calf serum, 2.0 mM L-glutamine, 50 units/mL penicillin, and 50 ∝g/mL streptomycin. IC50 values for the J774 and PC3 assays were determined with the software program SoftMax Pro as described earlier.
# PC3 cells = experiment: Toxicity to PC3 cells (three-day CellTiter assay); format: cell-based; conditions: read-out: IC50, PC3 prostate
# Method: as §3
# leishmanial tubulin [6] = conditions: reference 8; cited from earlier work
# [7] = literature reference 4; cited from earlier work
# [8] = system: L. donovani promastigotes; experiment: Flow cytometry of DNA content in L. donovani promastigotes; format: cell-based, Leishmania donovani; conditions: 10 μM compound; for effect on cell cycle / DNA content by flow cytometry: 48 hour treatment of promastigotes
# Method: Flow cytometry and fluorescence cell sorting. Parasites or J774 macrophages were incubated in T25 flasks (3-5 mL final volume) in the appropriate media described earlier for 24-48 h. Cultures contained 1% DMSO (v/v) in the presence or absence of test compounds. Cells were counted using a hemacytometer, then were centrifuged (1000×·g for parasites, 200×·g for macrophages) at 4° C. for 10 min (parasites) or 5 min (macrophages). Cells were resuspended in 150 μL of PBS (0.01 M phosphate, 0.137 M NaCl, and 2.7 mM KCl), then 350 μL of ice-cold methanol was added and the samples were fixed at −20° C. for 2-3 h. Cells were centrifuged as before and resuspended in PBS containing 0.1% TX-100, 5 μg/mL RNase A, and 10 μg/mL propidium iodide for 20-30 min. Centrifugation was repeated, then cells were resuspended in PBS to a final concentration of 5×10^5-10^6/mL and stored at 4° C. until analysis. Fluorescence cell sorting was conducted on a Beckman Coulter Elite flow cytometer.
# [9] = Leishmania donovani, 72 h, Table 4, three-day tetrazolium dye assay, mean ± SD, read-out: IC50, L. donovani axenic amastigotes
# [10] = Leishmania donovani, Table 1, mean ± standard deviation of at least two independent measurements, read-out: IC50 vs. L. donovani amastigotes
# [11] = Trypanosoma brucei, 72 h, Table 4, three-day tetrazolium dye assay
# [12] = Plasmodium falciparum, D6, read-out: IC50, P. falciparum D6 strain
# [13] = Plasmodium falciparum, W2, read-out: IC50, P. falciparum W2 strain
# [14] = Mus musculus, J774, Table 4, mean ± SD of at least two independent experiments, read-out: IC50, J774 macrophages
# [15] = read-out: IC50, J774 macrophages
smiles,measurement,setting,value
CCCCCCN(CCCCCC)c1c([N+](=O)[O-])cc(S(N)(=O)=O)cc1[N+](=O)[O-] [Compound 17],IC50,[1]; Leishmania donovani,12.2 µM
same,IC50,[2]; [9],11.7 ± 0.7 µM
same,IC50,[2]; [10],11.7 ± 0.7 µM
same,% Inhibition of Leishmanial Tubulin Assembly at 20 μM Compound,leishmanial tubulin [3],48 ± 19%
same,IC50,[4]; [11],9.48 ± 1.73 µM
same,IC50,"[5]; Trypanosoma brucei, 48 h",5.6 µM
same,IC50,P. falciparum D6 strain; [12],10 µM
same,IC50,P. falciparum W2 strain; [13],12 µM
same,IC50,J774 murine macrophages; [14],1.91 ± 0.36 µM
same,IC50,"PC3 cells; Homo sapiens, PC-3, 72 h",11.2 ± 1.3 µM
"O=[N+]([O-])c1cc(C(F)(F)F)cc([N+](=O)[O-])c1Cl [Chloralin, chloralin]","inhibition of leishmanial tubulin polymerization (in words, earlier publication)",leishmanial tubulin [6],inhibitor of leishmanial tubulin polymerization
"CCCN(CCC)c1c([N+](=O)[O-])cc(C(F)(F)F)cc1[N+](=O)[O-] [Trifluralin, trifluralin]",aqueous solubility (in words),[7],low solubility
"CCCCN(CCCC)c1c([N+](=O)[O-])cc(S(N)(=O)=O)cc1[N+](=O)[O-] [Compound 15, 4(dibutylamino)-3,5-dinitrobenzenesulfonamide]",IC50,[1]; Leishmania donovani,17.8 ± 2.6 µM
same,IC50,[2]; [9],20.1 ± 0.2 µM
same,IC50,"[2]; Leishmania donovani, 72 h, unit inferred, three-day tetrazolium dye assay, read-out: IC50, L. donovani axenic amastigotes",20.1 ± 0.2 µM
same,IC50,[2]; [10],20.1 ± 0.2 µM
same,% Inhibition of Leishmanial Tubulin Assembly at 20 μM Compound,leishmanial tubulin [3],89 ± 3%
same,IC50,[4]; [11],2.57 ± 0.7 µM
same,IC50,"[4]; Trypanosoma brucei, unit inferred",2.57 ± 0.7 µM
same,IC50,"[5]; Trypanosoma brucei, 48 h",1.8 µM
same,IC50,P. falciparum D6 strain; [12],5.1 µM
same,IC50,P. falciparum W2 strain; [13],4.3 µM
same,IC50,J774 murine macrophages; [14],8.43 ± 0.69 µM
same,IC50,"J774 murine macrophages; Mus musculus, J774, table after b111, unit inferred, read-out: IC50, J774 macrophages",8.43 ± 0.69 µM
same,IC50,"PC3 cells; Homo sapiens, PC-3, 72 h",17.2 ± 2.8 µM
same,effect on cell cycle / DNA content by flow cytometry,[8],accumulate in the G2M phase of the cell cycle
"CCCNS(=O)(=O)c1cc([N+](=O)[O-])c(N(CCC)CCC)c([N+](=O)[O-])c1 [Compound 21, N1-Propyl-3,5-dinitro-N4,N4-di-n-propylsulfonilamide]",IC50,[1]; mean ± standard deviation of at least two independent measurements,56 ± 2.3 µM
same,IC50,"[2]; read-out: IC50, L. donovani axenic amastigotes",54.3 µM and 56.9 µM
same,IC50,[2]; read-out: IC50 vs. L. donovani amastigotes,56.9 ± 3.4 µM
same,% Inhibition of Leishmanial Tubulin Assembly at 20 μM Compound,leishmanial tubulin [3],97 ± 1%
same,IC50,[4],9.2 µM and 8.06 µM
same,IC50,[5]; Coulter counter after two-day incubation,3 µM
same,IC50,"P. falciparum D6 strain; tritiated hypoxanthine uptake, read-out: IC50, P. falciparum D6 strain",13 µM
same,IC50,"P. falciparum W2 strain; tritiated hypoxanthine uptake, read-out: IC50, P. falciparum W2 strain",> 25 µM
same,IC50,J774 murine macrophages; [15],21.8 ± 2.1 µM
same,IC50,"PC3 cells; three-day tetrazolium dye assay, mean ± SD",40.5 ± 8.6 µM
"CCCN(CCC)c1c([N+](=O)[O-])cc(S(=O)(=O)Nc2ccccc2)cc1[N+](=O)[O-] [Compound 20, N1-Phenyl-3,5-dinitro-N4,N4-di-n-propylsulfonilamide]",IC50,[1]; Leishmania donovani,14.7 ± 1 µM
same,fold more active than 3 against promastigotes,[1]; relative to oryzalin 3,3.0 fold
same,fold more active than 3 against L. donovani axenic amastigotes,[2],13.4 fold
same,IC50,"[2]; Leishmania donovani, 72 h, read-out: IC50, L. donovani axenic amastigotes",5.03 ± 1.08 µM
same,IC50,"[2]; Leishmania donovani, read-out: IC50 vs. L. donovani amastigotes",5.41 ± 0.89 µM
same,% Inhibition of Leishmanial Tubulin Assembly at 20 μM Compound,leishmanial tubulin [3],108 ± 7%
same,IC50,"[4]; Trypanosoma brucei, 72 h",0.412 ± 0.044 µM
same,IC50,[4]; Trypanosoma brucei,0.4 µM
same,IC50,"[5]; Trypanosoma brucei, 48 h",0.58 µM
same,IC50,P. falciparum D6 strain; [12],11 µM
same,IC50,P. falciparum W2 strain; [13],13 µM
same,IC50,"J774 murine macrophages; Mus musculus, J774, read-out: IC50, J774 macrophages",28.3 ± 3.8 µM
same,IC50,J774 murine macrophages; [15],30.8 ± 1.9 µM
same,IC50,"PC3 cells; Homo sapiens, PC-3, 72 h",41.3 ± 8.5 µM
same,effect on cell cycle / DNA content by flow cytometry,[8],"appearance of parasites containing approximately 4×, 8×, and 16× more DNA"
same,parasite cell density over 48 hours,[8]; control cultures doubled approximately three times,remained at the same cell density
same,melting point,,120 °C
CCCCCN(CCCCC)c1c([N+](=O)[O-])cc(S(N)(=O)=O)cc1[N+](=O)[O-] [Compound 16],IC50,[1]; Leishmania donovani,8.02 ± 0.42 µM
same,IC50,[2]; [10],9 ± 0.7 µM
same,% Inhibition of Leishmanial Tubulin Assembly at 20 μM Compound,leishmanial tubulin [3],95 ± 5%
